Key:
TYK2 JH2 = biological target: T1, TYK2 JH2 (Homo sapiens, UniProt P29597); test: TYK2 JH2 binding assay (KINOMEscan KdELECT competitive binding); conditions: TYK2 JH2 domain, KINOMEscan KdELECT (Assay A); read-out: Biochemical TYK2_DiscoverX_JH2_BND_Kd
T1 construct: purchased DiscoverX (KINOMEscan KdELECT service); host or cells: E. coli BL21-derived (T7 phage display) or HEK-293
In short: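 Beads carrying a biotinylated ligand were mixed with tagged JH2 kinase and compound (11 points, 3-fold steps, 0.9% DMSO) and shaken 1 h at room temperature. After washing, kinase was released with 0.5 μM untagged ligand over 30 min and measured by qPCR to derive Kd.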

[1] = test system: JAK1/TYK2 pSTAT5 (Tyr694/699) in THP-1 cell line; test: IFNa-stimulated JAK1/TYK2 pSTAT5 (Tyr694/699) inhibition cellular assay, AlphaLISA; type: cell-based; conditions: Homo sapiens; THP-1 cells, IFNa-stimulated, AlphaLISA (Assay B); read-out: Cellular_THP1_IFNa-pSTATS_TYK2
In short: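 The readout is AlphaLISA signal at 615 nm for phospho-STAT5 in THP-1 lysates after IFNa stimulation (added at 100 ng/mL, 30 min, 37 °C). Cells had compound for 1 h beforehand across eight 6-fold concentrations up to 10000 nM final. IC50s are 4PL fits with bottom and Hill slope constrained.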

T1 sequence (P29597 589-875 limits assumed): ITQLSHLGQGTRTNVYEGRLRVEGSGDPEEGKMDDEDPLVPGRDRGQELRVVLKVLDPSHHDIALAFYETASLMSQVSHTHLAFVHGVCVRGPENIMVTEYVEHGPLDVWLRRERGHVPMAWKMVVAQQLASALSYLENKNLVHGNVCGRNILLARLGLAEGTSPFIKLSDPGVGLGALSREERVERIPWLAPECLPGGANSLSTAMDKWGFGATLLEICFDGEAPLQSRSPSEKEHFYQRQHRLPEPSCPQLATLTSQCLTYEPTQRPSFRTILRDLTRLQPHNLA

SMILES	Kd (TYK2 JH2)	IC50 [1]
CNc1ncc(C#Cc2nc3ccc(OC)cn3n2)c2cc(NC(=O)C3CC3)ncc12 [Example 676, N-(5-((6-methoxy-[1,2,4]triazolo[1,5-a]pyridin-2-yl)ethynyl)-8-(methylamino)-2,7-naphthyridin-3-yl)cyclopropanecarboxamide]	≤ 100 nM	≤ 500 nM
CNc1ncc(C#Cc2ccc(OCC3COC3)cc2)c2cc(NC(=O)C3CC3)ncc12 [Example 677, N-(8-(methylamino)-5-((4-(oxetan-3-ylmethoxy)phenyl)ethynyl)-2,7-naphthyridin-3-yl)cyclopropanecarboxamide]	≤ 100 nM	≤ 500 nM
CNc1ncc(C#Cc2ccc(OCC3COC3)cn2)c2cc(NC(=O)C3CC3)ncc12 [Example 678, N-(8-(methylamino)-5-((5-(oxetan-3-ylmethoxy)pyridin-2-yl)ethynyl)-2,7-naphthyridin-3-yl)cyclopropanecarboxamide]	≤ 100 nM	≤ 500 nM
CNc1ncc(C#Cc2ccc(OCC3CN(C(C)=O)C3)cc2)c2cc(NC(=O)C3CC3)ncc12 [Example 679, N-(5-((4-((1-acetylazetidin-3-yl)methoxy)phenyl)ethynyl)-8-(methylamino)-2,7-naphthyridin-3-yl)cyclopropanecarboxamide]	≤ 100 nM	≤ 500 nM
CNc1ncc(C#Cc2cc3ccccn3n2)c2cc(NC(=O)C3CC3)ncc12 [Example 680, N-(8-(methylamino)-5-(pyrazolo[1,5-a]pyridin-2-ylethynyl)-2,7-naphthyridin-3-yl)cyclopropanecarboxamide]	≤ 100 nM	≤ 500 nM
CNc1ncc(C#Cc2cc3c(cc2F)nnn3C)c2cc(NC(=O)C3CC3)ncc12 [Example 685, N-(5-((5-fluoro-1-methyl-1H-benzo[d][1,2,3]triazol-6-yl)ethynyl)-8-(methylamino)-2,7-naphthyridin-3-yl)cyclopropanecarboxamide]	≤ 100 nM	≤ 500 nM
CNc1ncc(C#Cc2cc3c(cn2)nnn3C)c2cc(NC(=O)C3CC3)ncc12 [Example 689, N-(5-((1-methyl-1H-[1,2,3]triazolo[4,5-c]pyridin-6-yl)ethynyl)-8-(methylamino)-2,7-naphthyridin-3-yl)cyclopropanecarboxamide]	≤ 100 nM	≤ 500 nM
CNc1ncc(C#Cc2ccc(O[C@@H]3CCOC3)cc2)c2cc(NC(=O)C3CC3)ncc12 [Example 690, (R)—N-(8-(methylamino)-5-((4-((tetrahydrofuran-3-yl)oxy)phenyl)ethynyl)-2,7-naphthyridin-3-yl)cyclopropanecarboxamide]	≤ 100 nM	≤ 500 nM
CNc1ncc(C#Cc2ccc(O[C@H]3CCOC3)cc2)c2cc(NC(=O)C3CC3)ncc12 [Example 691, (S)—N-(8-(methylamino)-5-((4-((tetrahydrofuran-3-yl)oxy)phenyl)ethynyl)-2,7-naphthyridin-3-yl)cyclopropanecarboxamide]	≤ 100 nM	≤ 500 nM
CNc1ncc(C#Cc2ccc3ncn(CCCOC)c3c2)c2cc(NC(=O)C3CC3)ncc12 [Example 693, N-(5-((1-(3-methoxypropyl)-1H-benzo[d]imidazol-6-yl)ethynyl)-8-(methylamino)-2,7-naphthyridin-3-yl)cyclopropanecarboxamide]	≤ 100 nM	≤ 500 nM
CNc1ncc(C#Cc2ccc3ncn(CCCC#N)c3c2)c2cc(NC(=O)C3CC3)ncc12 [Example 694, N-(5-((1-(3-cyanopropyl)-1H-benzo[d]imidazol-6-yl)ethynyl)-8-(methylamino)-2,7-naphthyridin-3-yl)cyclopropanecarboxamide]	≤ 100 nM	≤ 500 nM
CNc1ncc(C#Cc2ccc3c(c2)ncn3CCCC#N)c2cc(NC(=O)C3CC3)ncc12 [Example 695, N-(5-((1-(3-cyanopropyl)-1H-benzo[d]imidazol-5-yl)ethynyl)-8-(methylamino)-2,7-naphthyridin-3-yl)cyclopropanecarboxamide]	≤ 100 nM	≤ 500 nM
CNc1ncc(C#Cc2ccc3c(c2)OCC(CO)O3)c2cc(NC(=O)C3CC3)ncc12 (centres unmarked) [Example 696, N-(5-((2-(hydroxymethyl)-2,3-dihydrobenzo[b][1,4]dioxin-6-yl)ethynyl)-8-(methylamino)-2,7-naphthyridin-3-yl)cyclopropanecarboxamide]	≤ 100 nM	≤ 500 nM
CNc1ncc(C#Cc2ccc3c(c2)OCC(COC)O3)c2cc(NC(=O)C3CC3)ncc12 (centres unmarked) [Example 697, N-(5-((2-(methoxymethyl)-2,3-dihydrobenzo[b][1,4]dioxin-6-yl)ethynyl)-8-(methylamino)-2,7-naphthyridin-3-yl)cyclopropanecarboxamide]	≤ 100 nM	≤ 500 nM

Results, then the molecule that gave them:

Kd (TYK2 JH2)	IC50 [1]	SMILES
≤ 100 nM	≤ 500 nM	CNc1ncc(C#Cc2ccc3nnn(C(C)C)c3c2)c2cc(NC(=O)C3CC3)ncc12 [Example 681, N-(5-((1-isopropyl-1H-benzo[d][1,2,3]triazol-6-yl)ethynyl)-8-(methylimino)-2,7-naphthyridin-3-yl)cyclopropanecarboxamide]
≤ 100 nM	≤ 500 nM	CNc1ncc(C#Cc2ccc3nnn(CCOC)c3c2)c2cc(NC(=O)C3CC3)ncc12 [Example 682, N-(5-((1-(2-methoxyethyl)-1H-benzo[d][1,2,3]triazol-6-yl)ethynyl)-8-(methylamino)-2,7-naphthyridin-3-yl)cyclopropanecarboxamide]
≤ 100 nM	≤ 500 nM	CCn1nnc2ccc(C#Cc3cnc(NC)c4cnc(NC(=O)C5CC5)cc34)cc21 [Example 683, N-(5-((1-ethyl-1H-benzo[d][1,2,3]triazol-6-yl)ethynyl)-8-(methylamino)-2,7-naphthyridin-3-yl)cyclopropanecarboxamide]
≤ 100 nM	≤ 500 nM	CNc1ncc(C#Cc2ccc3nnn(CC(C)(C)O)c3c2)c2cc(NC(=O)C3CC3)ncc12 [Example 684, N-(5-((1-(2-hydroxy-2-methylpropyl)-1H-benzo[d][1,2,3]triazol-6-yl)ethynyl)-8-(methylamino)-2,7-naphthyridin-3-yl)cyclopropanecarboxamide]
≤ 100 nM	≤ 500 nM	CNc1ncc(C#Cc2ccc3nnn(CCC#N)c3c2)c2cc(NC(=O)C3CC3)ncc12 [Example 686, N-(5-((1-(2-cyanoethyl)-1H-benzo[d][1,2,3]triazol-6-yl)ethynyl)-8-(methylamino)-2,7-naphthyridin-3-yl)cyclopropanecarboxamide]
≤ 100 nM	≤ 500 nM	CNc1ncc(C#Cc2ccc3nnn(C4CC4)c3c2)c2cc(NC(=O)C3CC3)ncc12 [Example 687, N-(5-((1-cyclopropyl-1H-benzo[d][1,2,3]triazol-6-yl)ethynyl)-8-(methylimino)-2,7-naphthyridin-3-yl)cyclopropanecarboxamide]
≤ 100 nM	≤ 500 nM	CNc1ncc(C#Cc2ccc3nnn(CCCOC)c3c2)c2cc(NC(=O)C3CC3)ncc12 [Example 688, N-(5-((1-(3-methoxypropyl)-1H-benzo[d][1,2,3]triazol-6-yl)ethynyl)-8-(methylamino)-2,7-naphthyridin-3-yl)cyclopropanecarboxamide]
≤ 100 nM	≤ 500 nM	CNc1ncc(C#Cc2ccc3nc(COC)n(C)c3c2)c2cc(NC(=O)C3CC3)ncc12 [Example 692, N-(5-((2-(methoxymethyl)-1-methyl-1H-benzoimidazol-6-yl)ethynyl)-8-(methylamino)-2,7-naphthyridin-3-yl)cyclopropanecarboxamide]
